Data reported in patent US12252524B2, “GIP/GLP1 co-agonist compounds” (Eli Lilly and Company, priority 2018, dated 2025).
Each block holds one compound with its values, some of them ahead of it. Numbered stars: 1 amine (or outer) side, 2 acyl side, 3 side chain; on linkers, the order of the positions; unused ones are H or OH. Square brackets hold non-standard residues; d marks the D form. Side chains are listed from the residue outwards. Peptide text beside a SMILES is read from it. * marks the point of attachment. C20 diacid = O=C(O)CCCCCCCCCCCCCCCCCCC(=O)*; γGlu = O=C(O)[C@H](CCC(=O)[*:2])N[*:1]; αMeF = C[C@](N)(Cc1ccccc1)C(=O)O; AEEA = NCCOCCOCC(=O)O; Aib = CC(C)(N)C(=O)O

Legend:
[1] = molecular target: human GLP-1R (Homo sapiens, UniProt P43220); experiment: [125I]-GLP-1 binding (SPA), human GLP-1 receptor; design: expressed in transfected cells; crude membranes; conditions: read-out: hGLP1R Ki, (nM) (SEM, n)
In short: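 Assay buffer: HEPES 25 mM, pH 7.4, CaCl2 2.5 mM, MgCl2 1 mM, with EDTA-free protease inhibitors. Receptor came from crude cell membranes prepared by homogenization and centrifugation at 4° C. IC50s came from four-parameter fits (maximum, minimum, IC50, Hill slope) and were expressed as Ki geometric means with SEM.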

[2] = molecular target: T1, human Gcg receptor (Homo sapiens, UniProt P47871); experiment: [125I]-Glucagon binding (SPA), human Gcg receptor; conditions: read-out: hGLcgR Ki, nM (SEM, n)
T1 construct: expressed in transfected cells; crude membranes
In short: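 Cell pellets were lysed in hypotonic Tris buffer, pH 7.5, homogenized, and spun at low then high speed to give crude membranes. Ki was derived from the fitted IC50.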

[3] = molecular target: T2, human GIP receptor (Homo sapiens, UniProt P48546); experiment: [125I]-GIP binding (SPA), human GIP receptor; conditions: read-out: hGIPR Ki, nM (SEM, n)
T2 construct: expressed in transfected cells; crude membranes
T2 sequence (P48546 22-466): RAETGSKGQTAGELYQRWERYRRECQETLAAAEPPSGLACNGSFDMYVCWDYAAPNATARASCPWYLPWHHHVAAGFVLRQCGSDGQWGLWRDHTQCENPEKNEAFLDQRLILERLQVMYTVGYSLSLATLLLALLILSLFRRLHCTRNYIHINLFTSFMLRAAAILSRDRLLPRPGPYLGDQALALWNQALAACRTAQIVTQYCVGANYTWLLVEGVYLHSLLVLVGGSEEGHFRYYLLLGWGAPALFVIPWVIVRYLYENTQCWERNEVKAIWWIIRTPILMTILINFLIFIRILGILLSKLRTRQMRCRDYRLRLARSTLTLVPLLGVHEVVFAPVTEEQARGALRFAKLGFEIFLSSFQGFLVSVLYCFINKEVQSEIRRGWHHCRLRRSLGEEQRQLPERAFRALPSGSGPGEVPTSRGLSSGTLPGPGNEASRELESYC

[4] = molecular target: T3, gastric inhibitory peptide receptor (GIPR) (Homo sapiens, UniProt P48546); experiment: cAMP pharmacological functional assay in presence of casein, hGIPR; format: cell-based; conditions: HEK293 cells expressing hGIPR, 0.1% Casein, geometric mean; read-out: hGIPR cAMP Rel EC50 nM (SEM, n)
T3 sequence (P48546 22-466): T2 sequence (P48546 22-466)

[5] = molecular target: human GLP-1 receptor (GLP-1R) (Homo sapiens, UniProt P43220); experiment: cAMP pharmacological functional assay in presence of casein, hGLP-1R; format: cell-based; conditions: HEK293 cells expressing hGLP-1R, 0.1% Casein, geometric mean; read-out: hGLP1R cAMP Rel EC50 nM (SEM, n)
human GLP-1 receptor (GLP-1R), sequence (P43220 24-463): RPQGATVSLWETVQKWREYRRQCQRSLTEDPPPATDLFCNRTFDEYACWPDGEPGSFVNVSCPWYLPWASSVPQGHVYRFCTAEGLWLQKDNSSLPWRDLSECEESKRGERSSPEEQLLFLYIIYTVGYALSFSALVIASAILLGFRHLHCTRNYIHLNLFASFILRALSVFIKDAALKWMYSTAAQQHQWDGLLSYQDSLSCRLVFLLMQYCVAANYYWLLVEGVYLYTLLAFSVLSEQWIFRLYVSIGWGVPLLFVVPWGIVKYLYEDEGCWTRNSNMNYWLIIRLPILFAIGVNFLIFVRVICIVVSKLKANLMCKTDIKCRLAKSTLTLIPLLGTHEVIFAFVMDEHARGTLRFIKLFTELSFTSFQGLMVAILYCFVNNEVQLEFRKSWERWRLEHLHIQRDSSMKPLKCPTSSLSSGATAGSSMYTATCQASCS

human GLP-1R, sequence (P43220 24-463): as above
T1 sequence (P47871 26-477): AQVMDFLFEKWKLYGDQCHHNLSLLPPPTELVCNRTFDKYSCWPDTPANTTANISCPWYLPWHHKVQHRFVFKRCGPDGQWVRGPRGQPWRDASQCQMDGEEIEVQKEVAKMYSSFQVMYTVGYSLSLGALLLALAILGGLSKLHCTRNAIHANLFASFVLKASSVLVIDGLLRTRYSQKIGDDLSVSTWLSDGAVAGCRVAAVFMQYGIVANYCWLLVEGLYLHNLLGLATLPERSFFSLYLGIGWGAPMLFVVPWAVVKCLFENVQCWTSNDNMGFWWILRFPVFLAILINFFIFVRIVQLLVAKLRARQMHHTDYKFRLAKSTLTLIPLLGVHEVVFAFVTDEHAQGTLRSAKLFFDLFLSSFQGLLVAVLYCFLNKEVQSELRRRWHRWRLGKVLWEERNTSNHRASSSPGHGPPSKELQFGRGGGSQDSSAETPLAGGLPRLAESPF

Structure (SMILES): CC[C@H](C)[C@H](NC(=O)[C@H](CC(C)C)NC(=O)[C@H](Cc1ccc(O)cc1)NC(=O)[C@H](CCC(=O)O)NC(=O)[C@@H](NC(=O)[C@H](Cc1ccccc1)NC(=O)[C@H](C)NC(=O)C(C)(C)NC(=O)[C@H](CCC(N)=O)NC(=O)[C@H](C)NC(=O)[C@H](CCCCNC(=O)COCCOCCNC(=O)COCCOCCNC(=O)CC[C@H](NC(=O)CCCCCCCCCCCCCCCCCCC(=O)O)C(=O)O)NC(=O)[C@H](CCCCN)NC(=O)[C@H](CC(=O)O)NC(=O)[C@H](CC(C)C)NC(=O)[C@H](CC(C)C)NC(=O)[C@@H](NC(=O)[C@H](CO)NC(=O)[C@H](Cc1ccc(O)cc1)NC(=O)[C@H](CC(=O)O)NC(=O)[C@H](CO)NC(=O)[C@@H](NC(=O)[C@H](Cc1ccccc1)NC(=O)[C@@H](NC(=O)CNC(=O)[C@H](CCC(=O)O)NC(=O)[C@]1(C)CCCN1C(=O)[C@@H](N)Cc1ccc(O)cc1)[C@@H](C)O)[C@@H](C)O)[C@@H](C)CC)[C@@H](C)CC)C(=O)N[C@@H](CCC(=O)O)C(=O)NCC(=O)NCC(=O)N1CCC[C@H]1C(=O)N[C@@H](CO)C(=O)N[C@@H](CO)C(=O)NCC(=O)N[C@@H](C)C(=O)N1CCC[C@H]1C(=O)N1CCC[C@H]1C(=O)N1CCC[C@H]1C(=O)N[C@@H](CO)C(N)=O [Example 87]
Ki [1]: 1.79 nM | Ki [2]: 278 nM | Ki [3]: 0.034 nM | EC50 [4]: 0.0945 nM | EC50 [5]: 0.0801 nM

Structure (SMILES): CC[C@H](C)[C@H](NC(=O)[C@H](CC(C)C)NC(=O)[C@H](Cc1ccc(O)cc1)NC(=O)[C@H](CCC(=O)O)NC(=O)[C@@H](NC(=O)[C@H](Cc1ccccc1)NC(=O)[C@H](C)NC(=O)C(C)(C)NC(=O)[C@H](CCC(N)=O)NC(=O)[C@H](C)NC(=O)[C@H](CCCCNC(=O)COCCOCCNC(=O)COCCOCCNC(=O)CC[C@H](NC(=O)CCCCCCCCCCCCCCCCCCC(=O)O)C(=O)O)NC(=O)[C@H](CCCCN)NC(=O)[C@H](CC(=O)O)NC(=O)[C@H](CC(C)C)NC(=O)[C@H](CC(C)C)NC(=O)[C@@H](NC(=O)[C@H](CO)NC(=O)[C@H](Cc1ccc(O)cc1)NC(=O)[C@H](CC(=O)O)NC(=O)[C@H](CO)NC(=O)[C@@H](NC(=O)[C@H](Cc1ccccc1)NC(=O)[C@@H](NC(=O)CNC(=O)[C@H](CCC(=O)O)NC(=O)[C@@H]1CCCN1C(=O)[C@@H](N)Cc1ccc(O)cc1)[C@@H](C)O)[C@@H](C)O)[C@@H](C)CC)[C@@H](C)CC)C(=O)N[C@@H](CCC(=O)O)C(=O)NCC(=O)NCC(=O)N1CCC[C@H]1C(=O)N[C@@H](CO)C(=O)N[C@@H](CO)C(=O)NCC(=O)N[C@@H](C)C(=O)N1CCC[C@H]1C(=O)N1CCC[C@H]1C(=O)N1CCC[C@H]1C(=O)N[C@@H](CO)C(N)=O [Example 88] (H-YPEGTFTSDYSILLDKK([AEEA-AEEA-γGlu-C20 diacid])AQ[Aib]AFIEYLIEGGPSSGAPPPS-NH2)
Ki [1]: 4.24 nM | Ki [2]: 545 nM | Ki [3]: 0.0717 nM | EC50 [4]: 0.475 nM | EC50 [5]: 0.64 nM

Structure (SMILES): CC[C@H](C)[C@H](NC(=O)[C@H](CC(C)C)NC(=O)[C@H](Cc1ccc(O)cc1)NC(=O)[C@H](CCC(=O)O)NC(=O)[C@@H](NC(=O)[C@H](Cc1ccccc1)NC(=O)[C@H](C)NC(=O)C(C)(C)NC(=O)[C@H](CCC(N)=O)NC(=O)[C@H](C)NC(=O)[C@H](CCCCNC(=O)COCCOCCNC(=O)COCCOCCNC(=O)CC[C@H](NC(=O)CCCCCCCCCCCCCCCCCCC(=O)O)C(=O)O)NC(=O)[C@H](CCCCN)NC(=O)[C@H](CC(=O)O)NC(=O)[C@H](CC(C)C)NC(=O)[C@H](CC(C)C)NC(=O)[C@@H](NC(=O)[C@H](CO)NC(=O)[C@H](Cc1ccc(O)cc1)NC(=O)[C@H](CC(=O)O)NC(=O)[C@H](CO)NC(=O)[C@@H](NC(=O)[C@H](Cc1ccccc1)NC(=O)[C@@H](NC(=O)CNC(=O)[C@H](CCCC(=O)O)NC(=O)C(C)(C)NC(=O)[C@@H](N)Cc1ccc(O)cc1)[C@@H](C)O)[C@@H](C)O)[C@@H](C)CC)[C@@H](C)CC)C(=O)N[C@@H](CCC(=O)O)C(=O)NCC(=O)NCC(=O)N1CCC[C@H]1C(=O)N[C@@H](CO)C(=O)N[C@@H](CO)C(=O)NCC(=O)N[C@@H](C)C(=O)N1CCC[C@H]1C(=O)N1CCC[C@H]1C(=O)N1CCC[C@H]1C(=O)N[C@@H](CO)C(N)=O [Example 89]
Ki [1]: 2.64 nM | Ki [2]: 324 nM | Ki [3]: 0.045 nM | EC50 [4]: 0.119 nM | EC50 [5]: 0.335 nM

Structure (SMILES): CC[C@H](C)[C@H](NC(=O)[C@H](CC(C)C)NC(=O)[C@H](Cc1ccc(O)cc1)NC(=O)[C@H](CCC(=O)O)NC(=O)[C@@H](NC(=O)[C@H](Cc1ccccc1)NC(=O)[C@H](C)NC(=O)C(C)(C)NC(=O)[C@H](CCC(N)=O)NC(=O)[C@H](C)NC(=O)[C@H](CCCCNC(=O)COCCOCCNC(=O)COCCOCCNC(=O)CC[C@H](NC(=O)CCCCCCCCCCCCCCCCCCC(=O)O)C(=O)O)NC(=O)[C@H](CCCCN)NC(=O)[C@H](CC(=O)O)NC(=O)[C@H](CC(C)C)NC(=O)[C@H](CC(C)C)NC(=O)[C@@H](NC(=O)[C@H](CO)NC(=O)[C@H](Cc1ccc(O)cc1)NC(=O)[C@H](CC(=O)O)NC(=O)[C@H](CO)NC(=O)[C@@H](NC(=O)[C@H](Cc1ccccc1)NC(=O)[C@@H](NC(=O)CNC(=O)[C@H](CC(N)=O)NC(=O)C(C)(C)NC(=O)[C@@H](N)Cc1ccc(O)cc1)[C@@H](C)O)[C@@H](C)O)[C@@H](C)CC)[C@@H](C)CC)C(=O)N[C@@H](CCC(=O)O)C(=O)NCC(=O)NCC(=O)N1CCC[C@H]1C(=O)N[C@@H](CO)C(=O)N[C@@H](CO)C(=O)NCC(=O)N[C@@H](C)C(=O)N1CCC[C@H]1C(=O)N1CCC[C@H]1C(=O)N1CCC[C@H]1C(=O)N[C@@H](CO)C(N)=O [Example 90] (H-Y[Aib]NGTFTSDYSILLDKK([AEEA-AEEA-γGlu-C20 diacid])AQ[Aib]AFIEYLIEGGPSSGAPPPS-NH2; N-terminus assumed)
Ki [1]: 4.76 nM | Ki [2]: 245 nM | Ki [3]: 0.0472 nM | EC50 [4]: 0.0361 nM | EC50 [5]: 0.532 nM

Structure (SMILES): CC[C@H](C)[C@H](NC(=O)[C@H](CC(C)C)NC(=O)[C@H](Cc1ccc(O)cc1)NC(=O)[C@H](CCC(=O)O)NC(=O)[C@@H](NC(=O)[C@H](Cc1ccccc1)NC(=O)[C@H](C)NC(=O)C(C)(C)NC(=O)[C@H](CCC(N)=O)NC(=O)[C@H](C)NC(=O)[C@H](CCCCNC(=O)COCCOCCNC(=O)COCCOCCNC(=O)CC[C@H](NC(=O)CCCCCCCCCCCCCCCCCCC(=O)O)C(=O)O)NC(=O)[C@H](CCCCN)NC(=O)[C@H](CC(=O)O)NC(=O)[C@H](CC(C)C)NC(=O)[C@H](CC(C)C)NC(=O)[C@@H](NC(=O)[C@H](CO)NC(=O)[C@H](Cc1ccc(O)cc1)NC(=O)[C@H](CC(=O)O)NC(=O)[C@H](CO)NC(=O)[C@@H](NC(=O)[C@H](Cc1ccccc1)NC(=O)[C@@H](NC(=O)CNC(=O)CC[C@H](NC(=O)C(C)(C)NC(=O)[C@@H](N)Cc1ccc(O)cc1)C(=O)O)[C@@H](C)O)[C@@H](C)O)[C@@H](C)CC)[C@@H](C)CC)C(=O)N[C@@H](CCC(=O)O)C(=O)NCC(=O)NCC(=O)N1CCC[C@H]1C(=O)N[C@@H](CO)C(=O)N[C@@H](CO)C(=O)NCC(=O)N[C@@H](C)C(=O)N1CCC[C@H]1C(=O)N1CCC[C@H]1C(=O)N1CCC[C@H]1C(=O)N[C@@H](CO)C(N)=O [Example 91]
Ki [1]: 5.23 nM | Ki [2]: 540 nM | Ki [3]: 1.8 nM | EC50 [4]: 19.2 nM | EC50 [5]: > 5000 nM

Ki [1]: 1.89 nM | Ki [2]: 15.7 nM | Ki [3]: 0.0859 nM | EC50 [4]: 0.185 nM | EC50 [5]: 0.115 nM
Structure (SMILES): CC[C@H](C)[C@H](NC(=O)[C@H](CCCCN)NC(=O)[C@H](CC(=O)O)NC(=O)[C@H](CCCCNC(=O)COCCOCCNC(=O)COCCOCCNC(=O)CC[C@H](NC(=O)CCCCCCCCCCCCCCCCCCC(=O)O)C(=O)O)NC(=O)[C@H](CC(C)C)NC(=O)[C@@H](NC(=O)[C@H](CO)NC(=O)[C@H](Cc1ccc(O)cc1)NC(=O)[C@H](CC(=O)O)NC(=O)[C@H](CO)NC(=O)[C@@H](NC(=O)[C@](C)(Cc1ccccc1)NC(=O)[C@@H](NC(=O)CNC(=O)[C@H](CCC(=O)O)NC(=O)C(C)(C)NC(=O)[C@@H](N)Cc1ccc(O)cc1)[C@@H](C)O)[C@@H](C)O)[C@@H](C)CC)C(=O)N[C@@H](C)C(=O)N[C@@H](CCC(N)=O)C(=O)NC(C)(C)C(=O)N[C@@H](C)C(=O)N[C@@H](Cc1ccccc1)C(=O)N[C@H](C(=O)N[C@@H](CCC(=O)O)C(=O)N[C@@H](Cc1ccc(O)cc1)C(=O)N[C@@H](CC(C)C)C(=O)N[C@H](C(=O)N[C@@H](CCC(=O)O)C(=O)NCC(=O)NCC(N)=O)[C@@H](C)CC)[C@@H](C)CC [Example 93] (H-Y[Aib]EGT[αMeF]TSDYSILK([AEEA-AEEA-γGlu-C20 diacid])DKIAQ[Aib]AFIEYLIEGG-NH2)
